Test results: article PMC8298602, “14-3-3-protein regulates Nedd4-2 by modulating interactions between HECT and WW domains” (Communications Biology, 2021)

Assays:
[1] = test system: all human 14-3-3 protein isoforms; experiment: fluorescence polarization (FP), all seven 14-3-3 isoforms (results in words); type: binding; settings: 50 nM FITC-labelled peptide, 14-3-3 isoforms from 80 μM
Procedure: Fig. 4 14-3-3 isoform binding specificity of Nedd4-2 phosphomotifs. Binding of FITC-labeled phosphopeptides with 14-3-3 binding motifs of Nedd4-2 (pSer^342, pThr^367 or pSer^448) to all human 14-3-3 isoforms was characterized by FP titrations. The binding affinities of these peptides were determined by fitting FP data to a one-site binding model. The corresponding sequences of these peptides are shown at the top. Background polarization was subtracted from all values. Results are expressed as mean ± SD (n = 3). Error bars are not visible if they are smaller than the size of the symbol.
The FP assay was performed using a CLARIOstar microplate reader (BMG Labtech, […]) on 384-well black low-volume flat-bottom plates (Corning, New York, USA) in a buffer containing 10 mM HEPES (pH 7.4), 150 mM NaCl, 0.1% (v/v) Tween 20 and 0.1% (w/v) BSA. […] The excitation and emission wavelengths were 482 nm and 530 nm, respectively. The KD values were determined as the mean of three independent measurements using GraphPad Prism version 8.0.1 for Windows, GraphPad Software, La Jolla California USA, www.graphpad.com.
(§1) Results from the FP assay (Fig. 4) and immunoblot (Supplementary Fig. S1) are represented as means ± SD from three replicates as indicated in the figure legend. Statistical analysis for the data from immunoblot were performed using Graph-Pad Prism 8.4. Student’s t-test was used for comparison of relative changes of samples with and without 14-3-3η at selected timepoints (ns, non-significant P > 0.05; *, P < 0.05).

Nedd4-2^186–975 = experiment: auto-ubiquitination (Ub chain formation) assay, immunoblot; type: biochemical, human; settings: for Difference (no 14-3-3 minus with 14-3-3): normalized means; for effect on auto-ubiquitination of Nedd4-2^186–975 (in words): Nedd4-2^186–975 with 14-3-3, 1:2 molar ratio, 30 °C
Procedure: For in vitro ubiquitination assays, 5 µg of human Ub, 50 ng of E1 (mouse Uba1), 200 ng of E2 (mouse Ube2d2) and 500 ng of E3 (phosphorylated Nedd4-2^186–975) were incubated in 30 µl of the reaction mixture in a buffer containing 50 mM Tris pH 7.5, 2 mM ATP, 5 mM MgCl2 and 2 mM DTT and incubated for 5, 10 and 15 min at 30 °C. The reactions were stopped by adding 5 × SDS-PAGE loading buffer (250 mM Tris pH 6.8, 50% glycerol, 500 mM DTT and 10% SDS) and incubating at 95 °C for 3 minutes to denaturate the samples. For reactions with 14-3-3η, Nedd4-2^186–975 was mixed with 14-3-3η in a 1:2 molar ratio and incubated for 30 minutes on ice before starting the reaction. In addition, 20 µl of reaction was separated by conventional SDS-PAGE on a 10% acrylamide gel and electro-blotted against a PVDF membrane in 20 mM Tris pH 7.5, 154 mM glycin and 10% methanol buffer overnight at 4 °C. Rabbit anti-Ub polyclonal antibody (Enzo) and anti-rabbit IgG, HRP-linked Antibody (Cell Signaling Technology) were used to visualize the transferred polyubiquitin chains. Chemiluminescence was induced by ECL and detected using Fusion Solo S (Vilber). The detected bands of E3-Ub were quantitated using the Image Lab software (Bio-Rad).
as §1
Supplementary Fig. S1. 14-3-3 slows down the auto-ubiquitination of Nedd4- 2186-975. a Purity and integrity of the samples used in the Ub chain formation assay. The samples were resolved by 10% Tris/Glycine SDS-PAGE and stained with Coomassie G-250. b Ubiquitin (Ub) chain formation assay with and without 14-3-3ε and the representative immunoblot of Ub. Black rectangles denote the borders of the sample zones that were quantified. The presence of ubiquitinated Nedd4-2 in the quantified zones was confirmed by LC-MS analysis. c Relative abundances of ubiquitinated Nedd4-2186-975 with and without 14-3-3η based on the immunoblot of Ub. Error bars represent the standard deviation of three independent experiments. Results show the data distribution. Asterisks represent significant differences according to unpaired Student’s t-tests comparing relative change between samples without and with 14-3-3ε at selected timepoints (ns, non-significant P > 0.05; *, P < 0.05).
(1 picture or pasted object on this page, not shown here)

Question: How did the “binding to 14-3-3 isoforms (in words)” value [1] turn out when FITC-ARSSpTVTGGE [pep-T367] was run?
Answer: very weak, to all 14-3-3 isoforms except ε and σ

Question: How did the “binding to 14-3-3 isoforms (in words)” value [1] turn out when FITC-PRSLpSSPTVT [pep-S342] was run?
Answer: measurable binding affinity only to 14-3-3σ

Question: For FITC-LRSCpSVTDAV [pep-S448], which “binding to 14-3-3 isoforms (in words)” value [1] is on record?
Answer: binds to all 14-3-3 isoforms in the low micromolar range

Question: With “14-3-3η: 14-3-3 protein eta isoform, stable dimer, known Nedd4-2 binding partner” as the substance, how does the “Difference (no 14-3-3 minus with 14-3-3)” value (Nedd4-2^186–975; 5 min) read?
Answer: 0.1757

Question: And the “relative abundance of ubiquitinated Nedd4-2^186–975” value (“relative abundance” below) (Nedd4-2^186–975; 5 min, with 14-3-3, mean of n = 3, normalized (mean without 14-3-3 = 1), listed as 14-3-3)?
Answer: 0.8243

Question: And the “relative abundance” value (Nedd4-2^186–975; 5 min, with 14-3-3, mean of n = 3, normalized (mean without 14-3-3 = 1), listed as 1433)?
Answer: 0.8243

Question: What about the “abundance of ubiquitinated Nedd4-2^186–975” value (Nedd4-2^186–975; 5 min, with 14-3-3, mean of n = 3, not normalized) of the same substance?
Answer: 1.509

Question: And the “relative abundance” value (Nedd4-2^186–975; 5 min, with 14-3-3, replicate 1, normalized (mean without 14-3-3 = 1))?
Answer: 0.8139

Question: What about the “abundance of ubiquitinated Nedd4-2^186–975” value (Nedd4-2^186–975; 5 min, with 14-3-3, replicate 1, not normalized) of the same substance?
Answer: 1.49

Question: And the “relative abundance” value (Nedd4-2^186–975; 5 min, with 14-3-3, replicate 2, normalized (mean without 14-3-3 = 1))?
Answer: 1.075

Question: And the “abundance of ubiquitinated Nedd4-2^186–975” value (Nedd4-2^186–975; 5 min, with 14-3-3, replicate 2, not normalized)?
Answer: 1.967

Question: And the “relative abundance” value (Nedd4-2^186–975; 5 min, with 14-3-3, replicate 3, normalized (mean without 14-3-3 = 1))?
Answer: 0.5843

Question: And the “abundance of ubiquitinated Nedd4-2^186–975” value (Nedd4-2^186–975; 5 min, with 14-3-3, replicate 3, not normalized)?
Answer: 1.069

Question: What about the “Difference (no 14-3-3 minus with 14-3-3)” value (Nedd4-2^186–975; 10 min) of the same substance?
Answer: 0.2602

Question: And the “relative abundance” value (Nedd4-2^186–975; 10 min, with 14-3-3, mean of n = 3, normalized (mean without 14-3-3 = 1), listed as 14-3-3)?
Answer: 0.7398

Question: And the “relative abundance” value (Nedd4-2^186–975; 10 min, with 14-3-3, mean of n = 3, normalized (mean without 14-3-3 = 1), listed as 1433)?
Answer: 0.7398

Question: What about the “abundance of ubiquitinated Nedd4-2^186–975” value (Nedd4-2^186–975; 10 min, with 14-3-3, mean of n = 3, not normalized) of the same substance?
Answer: 2.393

Question: And the “relative abundance” value (Nedd4-2^186–975; 10 min, with 14-3-3, replicate 1, normalized (mean without 14-3-3 = 1))?
Answer: 0.713

Question: And the “abundance of ubiquitinated Nedd4-2^186–975” value (Nedd4-2^186–975; 10 min, with 14-3-3, replicate 1, not normalized)?
Answer: 2.306

Question: What about the “relative abundance” value (Nedd4-2^186–975; 10 min, with 14-3-3, replicate 2, normalized (mean without 14-3-3 = 1)) of the same substance?
Answer: 0.8702

Question: What about the “abundance of ubiquitinated Nedd4-2^186–975” value (Nedd4-2^186–975; 10 min, with 14-3-3, replicate 2, not normalized) of the same substance?
Answer: 2.814

Question: What about the “relative abundance” value (Nedd4-2^186–975; 10 min, with 14-3-3, replicate 3, normalized (mean without 14-3-3 = 1)) of the same substance?
Answer: 0.6363

Question: And the “abundance of ubiquitinated Nedd4-2^186–975” value (Nedd4-2^186–975; 10 min, with 14-3-3, replicate 3, not normalized)?
Answer: 2.058

Question: And the “Difference (no 14-3-3 minus with 14-3-3)” value (Nedd4-2^186–975; 15 min)?
Answer: 0.2943

Question: And the “relative abundance” value (Nedd4-2^186–975; 15 min, with 14-3-3, mean of n = 3, normalized (mean without 14-3-3 = 1), listed as 14-3-3)?
Answer: 0.7057

Question: What about the “relative abundance” value (Nedd4-2^186–975; 15 min, with 14-3-3, mean of n = 3, normalized (mean without 14-3-3 = 1), listed as 1433) of the same substance?
Answer: 0.7057

Question: And the “abundance of ubiquitinated Nedd4-2^186–975” value (Nedd4-2^186–975; 15 min, with 14-3-3, mean of n = 3, not normalized)?
Answer: 3.153

Question: And the “relative abundance” value (Nedd4-2^186–975; 15 min, with 14-3-3, replicate 1, normalized (mean without 14-3-3 = 1))?
Answer: 0.7206

Question: What about the “abundance of ubiquitinated Nedd4-2^186–975” value (Nedd4-2^186–975; 15 min, with 14-3-3, replicate 1, not normalized) of the same substance?
Answer: 3.22

Question: What about the “relative abundance” value (Nedd4-2^186–975; 15 min, with 14-3-3, replicate 2, normalized (mean without 14-3-3 = 1)) of the same substance?
Answer: 0.776

Question: And the “abundance of ubiquitinated Nedd4-2^186–975” value (Nedd4-2^186–975; 15 min, with 14-3-3, replicate 2, not normalized)?
Answer: 3.467

Question: What about the “relative abundance” value (Nedd4-2^186–975; 15 min, with 14-3-3, replicate 3, normalized (mean without 14-3-3 = 1)) of the same substance?
Answer: 0.6205

Question: And the “abundance of ubiquitinated Nedd4-2^186–975” value (Nedd4-2^186–975; 15 min, with 14-3-3, replicate 3, not normalized)?
Answer: 2.772

Question: What about the “effect on auto-ubiquitination of Nedd4-2^186–975 (in words)” value (Nedd4-2^186–975) of the same substance?
Answer: reduced

Question: What about the “effect on auto-ubiquitination of Nedd4-2^186–975 (in words)” value (Nedd4-2^186–975; listed as 14-3-3) of the same substance?
Answer: slows down
